Drawing on patent publication US5066658A, “Substituted hydroxyureas” (Ortho Pharmaceutical Corporation, priority 1990, dated 1991), this text covers inhibition in vivo and inhibition for 26 compounds.

The test system of assay [1] is Arachidonate-Induced Bronchospasm (lipoxygenase). Put plainly: Pulmonary Mechanics Assay: arachidonate-induced bronchospasm with indomethacin (SRS-A response, indicative of lipoxygenase inhibition). The settings on record: Cavia porcellus, guinea pig; for inhibition in vivo at 15 mg/kg: IV dosing, read-out: Inhibition of Arachidonate-Induced Bronchospasm (IV Dosing), % Inh. with Indomethacin. The format is in vivo, male Hartley guinea pigs. The procedure:
(§1) The bronchodilating activity of the compounds was tested in a pulmonary mechanics assay. Basically, male Hartley guinea pigs (about 400-500 g) were anesthetized with urethane (2 g/kg, i.p.) and placed in a whole body Plethysmograph. Cannulations of a jugular vein and carotid artery were performed for compound administration and monitoring blood pressure, respectively. The trachea was cannulated for respiration at a constate volume via a miniature starling pump. A Validyne differential pressure transducer (±20 cm H2 O) sensed transpleural pressure via a 15 gauge needle inserted into the pleural cavity and a sidearm from the tracheal cannula. Tidal volume was sensed by another Validyne differential pressure transducer (±2 cm H2 O) from pressure changes inside the plethysmograph. An on-line Buxco pulmonary mechanics computer calculated air flow, dynamic lung compliance and lung resistance. The values were recorded on a print-out.
(§2) The guinea pigs were pretreated with succinyl choline (1.2 mg/kg, i.v.) to arrest spontaneous respiration. A control challenge of arachidonic acid (0.5-1.0 mg/kg, i.v.) was administered, and the animals were then dosed with the test compound by various routes. At least 10 minutes were allowed to expire between arachidonic acid challenges. A second challenge was given and compared to the control response. This comparison was indicative of cyclooxygenase inhibition. Indomethacin (10 mg/kg, i.v.) was administered immediately after the second challenge. A third challenge of a higher dose of arachidonic acid (5-10 mg/kg, i.v.) was given. This response was induced by SRS-A and compared to the responses elicited by a separate control group of animals. Activity was indicative of lipoxygenase inhibition. Propranolol (0.005 mg/kg. i.v.) may be given prior to the third challenge to enhance the response to SRS-A.
(§3) Bronchoconstriction induced by arachidonic acid with or without indomethacin was expressed as maximum percent change in dynamic lung compliance (Cdyn) and maximum percent increase in lung resistance (RL). Each guinea pig served as its own control for cyclooxygenase evaluation. The results are shown in Table I and are expressed as the percent inhibition of control.

Assay [2] concerns Arachidonate-Induced Bronchospasm (cyclooxygenase). Put plainly: Pulmonary Mechanics Assay: arachidonate-induced bronchospasm without indomethacin (indicative of cyclooxygenase inhibition). The class given is in vivo, male Hartley guinea pigs. The following applies: Cavia porcellus, guinea pig; for inhibition in vivo at 15 mg/kg: IV dosing, read-out: Inhibition of Arachidonate-Induced Bronchospasm (IV Dosing), % Inh. without Indomethacin. The protocol: as §1, §2, §3

The target of assay [3] is T1, 5-lipoxygenase (Rattus norvegicus, UniProt P12527).
T1 construct: The cell-free homogenate was prepared by sonication of the cells followed by centrifugation at 40,000 xg; endogenous in cells; host or cells: RBL-1 (rat basophilic leukemia) cells, 40,000 xg supernatant of the sonicate
T1 sequence (P12527 1-673): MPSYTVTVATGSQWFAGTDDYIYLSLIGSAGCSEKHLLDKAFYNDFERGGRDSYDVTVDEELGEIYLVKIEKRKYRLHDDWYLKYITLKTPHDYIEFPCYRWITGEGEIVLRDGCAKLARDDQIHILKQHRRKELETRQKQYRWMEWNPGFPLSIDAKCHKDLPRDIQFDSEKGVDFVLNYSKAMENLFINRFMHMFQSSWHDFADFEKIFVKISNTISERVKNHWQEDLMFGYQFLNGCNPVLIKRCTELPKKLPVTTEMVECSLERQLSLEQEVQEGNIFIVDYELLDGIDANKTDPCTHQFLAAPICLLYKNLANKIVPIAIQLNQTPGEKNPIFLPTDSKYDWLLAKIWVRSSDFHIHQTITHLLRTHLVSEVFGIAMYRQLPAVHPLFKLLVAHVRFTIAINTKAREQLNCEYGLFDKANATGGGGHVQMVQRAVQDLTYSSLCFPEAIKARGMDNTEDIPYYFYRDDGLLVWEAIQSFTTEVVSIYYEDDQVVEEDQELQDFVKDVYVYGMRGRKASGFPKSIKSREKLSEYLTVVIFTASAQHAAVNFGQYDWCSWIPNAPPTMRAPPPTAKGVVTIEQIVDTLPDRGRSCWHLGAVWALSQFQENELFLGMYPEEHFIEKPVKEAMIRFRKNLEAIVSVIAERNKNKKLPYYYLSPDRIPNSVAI
Put plainly: Inhibition of 5-lipoxygenase in cell-free homogenate of rat basophilic leukemia (RBL-1) cells. The format is biochemical. The following applies: 3 μM; RBL-1 cell-free homogenate; read-out: Inhibition of 5-Lipoxygenase, % Inh. @ 3 μM. The protocol:
The inhibition of 5-lipoxygenase was tested in a cell-free homogenate by the procedure of B. Jakschik et al., Biochem.Biophys.Res.Comm. 95, 103 (1980). Basically, rat basophilic leukemia cells (RBL-1 cells) were maintained in culture in a suitable medium, and were collected by centrifugation prior to assay. The cell-free homogenate was prepared by sonication of the cells followed by centrifugation at 40,000 xg. The CaCl2 dependent production of lipoxygenase products from ^14 C-arachidonic acid in the 40,000 xg supernatant was monitored in the presence of buffer (or other vehicle) or drug. Products were isolated by acidification and extraction, followed by thin layer chromatography. Radioactive areas corresponding to the authentic lipoxygenase products were quantitated by liquid scintillation counting. Data was reported as the IC50, the concentration causing 50% inhibition of the generation of lipoxygenase products. The results are shown it Table I as the percent inhibition at 3 μM or the amount of compound necessary to cause 50% inhibition.

[4] abbreviates: ID dosing, read-out: Inhibition of Arachidonate-Induced Bronchospasm (ID Dosing), % Inh. with Indomethacin.
Where [5] appears, read: ID dosing, read-out: Inhibition of Arachidonate-Induced Bronchospasm (ID Dosing), % Inh. without Indomethacin.

By inhibition is commonly meant the percentage by which the read-out fell short of the control. In the case of `COc1cc2c(cc1OC)C(CNC(=O)N(C)O)CC2` (stereo not drawn) [Example 60, N-[(5,6-Dimethoxyindan-1-yl)methyl]-N'-hydroxy-N'-methylurea], the inhibition in vivo at 15 mg/kg amounted to 67% in assay [1] and 48% in assay [2]. Also, the inhibition at 3 µM in assay [3] turned out to be 51%. In the case of `COc1ccc(CC(C)NC(=O)N(C)O)cc1OC` (stereo not drawn) [Example 54, N-[2-(3,4-Dimethoxyphenyl)-1-methylethyl]-N'-hydroxy-N'-methylurea], the inhibition at 3 µM in assay [3] stood at 8%. `COc1cc2c(cc1OC)CC(NC(=O)N(C)O)C2` [Example 57, N-(5,6-Dimethoxyindan-2-yl)-N'-hydroxy-N'-methylurea]: the inhibition at 3 µM in assay [3] stood at 55%. On the same count and under the same terms, the same measure for `C=CCCCCCCCCNC(=O)N(C)O` [Example 18, N-(9-Decenyl)-N'-methyl-N'-hydroxyurea]: 94%. As to `CN(O)C(=O)NCCOc1ccc(-c2ccccc2)cc1` [Example 33, N-[2-([1,1'-biphenyl]-4-yloxy)ethyl]N'-hydroxy-N'-methylurea], the inhibition in vivo at 50 mg/kg in assay [1] (setting [4]) is 28%; in assay [2] (setting [5]), < 20%. Further, the inhibition at 3 µM in assay [3] is 70%. As for `COc1ccc(CCCN(CCCc2ccc(OC)c(OC)c2)C(=O)N(C)O)cc1OC` [Example 63, N,N-Bis-[3-(3,4-dimethoxyphenyl)propyl]-N'-hydroxy-N'-methylurea], the inhibition in vivo at 50 mg/kg in assay [1] (setting [4]) was 21%; in assay [2] (setting [5]) it was < 20%. In assay [3], the inhibition at 3 µM came to 76%.

In the case of `COc1ccc(CCNC(=O)NO)cc1OC` [Example 72, N-[2-(3,4-Dimethoxyphenyl)ethyl]-N'-hydroxyurea], the figures for the inhibition in vivo at 50 mg/kg in assay [1] (setting [4]) and in assay [2] (setting [5]) were 56% and 50%, respectively. Also, the inhibition at 3 µM in assay [3] stood at 21%.

For `CN(O)C(=O)NCCc1ccc2c(c1)OCO2` [Example 43, N-[2-(3,4-Methylenedioxy)phenyl)ethyl-N'-hydroxy-N'-methylurea], the inhibition in vivo at 50 mg/kg in assay [1] (setting [4]) and in assay [2] (setting [5]) was < 20% each time. Also, the inhibition at 3 µM in assay [3] is 65%. For the compound `CN(O)C(=O)NCCc1ccc2c(c1)OCCO2` [Example 46, N-[2-(Benzo-1,4-dioxan-6-yl)ethyl]-N'-hydroxy-N'-methylurea], the inhibition at 3 µM in assay [3] turned out to be 42%. Consider `CN(O)C(=O)N1CCC(C(c2ccccc2)c2ccccc2)CC1` [Example 75, 4-(Diphenylmethyl)-N-hydroxy-N-methylpiperidine-1-carboxamide], for which the inhibition at 3 µM in assay [3] is 44%.

Turning to `CCCCC/C=C\C/C=C\C/C=C\C/C=C\CCCNC(=O)N(C)O` [Example 22, N-(4,7,10,13-Nonadecatetraenyl)-N'-methyl-N'-hydroxyurea], in assay [3], the inhibition at 3 µM came out at 71%. With `COc1ccc(CCN(C)C(=O)N(C)O)cc1OC` [Example 53, N-[2-(3,4-Dimethyoxyphenyl)ethyl]-N'-hydroxy-N,N'-dimethylurea], the inhibition in vivo at 25 mg/kg in assay [1] (ID dosing, 25 mg/kg, read-out: Inhibition of Arachidonate-Induced Bronchospasm (ID Dosing), % Inh. with Indomethacin) was found to be 71%; in assay [2] (ID dosing, 25 mg/kg, read-out: Inhibition of Arachidonate-Induced Bronchospasm (ID Dosing), % Inh. without Indomethacin), 52%. The figures for the inhibition in vivo at 15 mg/kg in assay [1] and in assay [2] were 51% and 79%, respectively. For the same compound, the inhibition at 3 µM in assay [3] was found to be 0%.

For `CCCCCCCCCCC1CN(C)C(=O)N(O)C1` (stereo not drawn) [Example 29, 5-Decyl-1-hydroxy-3-methyl-3,4,5,6-tetrahydro-lH-pyrimidin-2-one], the inhibition at 3 µM in assay [3] stood at 30%. Regarding `CN(O)C(=O)NCCCCOc1ccc(-c2ccccc2)cc1` [Example 35, N-[4-([1,1'-Biphenyl]-4-yloxy)butyl]N'-hydroxy-N'-methylurea], the values for the inhibition in vivo at 50 mg/kg in assay [1] (setting [4]) and in assay [2] (setting [5]) were 33% and < 20%, respectively. The inhibition at 3 µM in assay [3] was found to be 79%. As to `COc1ccc(OC)c(CCNC(=O)N(C)O)c1` [Example 47, N-[2-(2,5-Dimethoxyphenyl)ethyl]-N'-hydroxy-N'-methylurea], in assay [3], the inhibition at 3 µM stood at 56%.

Turning to `COc1cc(CCNC(=O)N(C)O)cc(OC)c1OC` [Example 45, N-[2-(3,4,5-Trimethoxyphenyl)ethyl]-N'-hydroxy-N'-methylurea], the inhibition at 3 µM in assay [3] came out at 36%.

As for `CCCCCCN(O)C(=O)N(C)C` [Example 10, N,N-Dimethyl-N'-hexyl-N'-hydroxyurea], the inhibition at 3 µM in assay [3] worked out at 100%. Same read-out and setting: the same measure for `COc1cccc(C2CCCN(C(=O)N(C)O)C2)c1` (stereo not drawn) [Example 73, N-Hydroxy-3-(3-methoxyphenyl)-N-methylpiperidine-1-carboxamide]: 46%.

Consider `CCOC(=O)CCCN(O)C(=O)NCCc1ccc(OC)c(OC)c1` [Example 74, N-[2-(3,4-Dimethoxyphenyl)ethyl]-N'-[3-(ethoxycarbonyl)propyl]-N'-hydroxyurea], for which the inhibition at 3 µM in assay [3] came to 42%. `CN(O)C(=O)NCCc1cccc(Oc2ccccc2)c1` [Example 76, N-Hydroxy-N-methyl-N'-[2-(3-phenoxyphenyl)ethyl]urea]: the inhibition at 3 µM in assay [3] came out at 66%.

For the compound `COc1ccc(CNC(=O)N(C)O)cc1OC` [Example 42, N-[(3,4-Dimethoxyphenyl)methyl]-N'-hydroxy-N'-methylurea], the inhibition at 3 µM in assay [3] was determined as 28%.

Turning to `C=CCCCCCCCCC(O)CNC(=O)N(C)O` (stereo not drawn) [Example 21, N-(2-Hydroxy-11-dodecenyl)-N'-methyl-N'-hydroxyurea], the inhibition at 3 µM in assay [3] worked out at 22%. Consider `COc1cc(CCNC(=O)N(C)O)cc(OC)c1` [Example 48, N-[2-(3,5-Dimethoxyphenyl)ethyl]-N'-hydroxy-N'-methylurea], for which the inhibition at 3 µM in assay [3] was found to be 42%. As to `COc1ccc(CCN(C(=O)N(C)O)c2ccc(Cl)cc2)cc1OC` [Example 67, N-[2-(3,4-Dimethyloxyphenyl)ethyl]-N-(4-chlorophenyl)-N'-methyl-N'-hydroxyurea], the inhibition at 3 µM in assay [3] is 48%. As to `COc1ccc(CCN(CC(C)C)C(=O)N(C)O)cc1OC` [Example 64, N-[2-(3,4-Dimethoxyphenyl)ethyl]-N'-hydroxy-N'-methyl-N-(2-methylpropyl)urea], the inhibition at 3 µM in assay [3] is 33%. In the case of `COc1ccc(C2C3CCC(C3)C2NC(=O)N(C)O)cc1OC` (stereo not drawn) [Example 59, N-[trans-3-(3,4-Dimethoxyphenyl)bicyclo[2.2.1]-heptan-2-yl]-N '-hydroxy-N'-methylurea], in assay [3], the inhibition at 3 µM amounted to 39%.
